This passage reports inhibition results from patent US8952034B2, “Fused heterocyclic compounds as ion channel modulators” (Gilead Sciences, Inc., priority 2009, dated 2015).

Each structure is given as a SMILES string.

wild-type human cardiac sodium channel, hNav1.5, sequence (Q14524 whole entry): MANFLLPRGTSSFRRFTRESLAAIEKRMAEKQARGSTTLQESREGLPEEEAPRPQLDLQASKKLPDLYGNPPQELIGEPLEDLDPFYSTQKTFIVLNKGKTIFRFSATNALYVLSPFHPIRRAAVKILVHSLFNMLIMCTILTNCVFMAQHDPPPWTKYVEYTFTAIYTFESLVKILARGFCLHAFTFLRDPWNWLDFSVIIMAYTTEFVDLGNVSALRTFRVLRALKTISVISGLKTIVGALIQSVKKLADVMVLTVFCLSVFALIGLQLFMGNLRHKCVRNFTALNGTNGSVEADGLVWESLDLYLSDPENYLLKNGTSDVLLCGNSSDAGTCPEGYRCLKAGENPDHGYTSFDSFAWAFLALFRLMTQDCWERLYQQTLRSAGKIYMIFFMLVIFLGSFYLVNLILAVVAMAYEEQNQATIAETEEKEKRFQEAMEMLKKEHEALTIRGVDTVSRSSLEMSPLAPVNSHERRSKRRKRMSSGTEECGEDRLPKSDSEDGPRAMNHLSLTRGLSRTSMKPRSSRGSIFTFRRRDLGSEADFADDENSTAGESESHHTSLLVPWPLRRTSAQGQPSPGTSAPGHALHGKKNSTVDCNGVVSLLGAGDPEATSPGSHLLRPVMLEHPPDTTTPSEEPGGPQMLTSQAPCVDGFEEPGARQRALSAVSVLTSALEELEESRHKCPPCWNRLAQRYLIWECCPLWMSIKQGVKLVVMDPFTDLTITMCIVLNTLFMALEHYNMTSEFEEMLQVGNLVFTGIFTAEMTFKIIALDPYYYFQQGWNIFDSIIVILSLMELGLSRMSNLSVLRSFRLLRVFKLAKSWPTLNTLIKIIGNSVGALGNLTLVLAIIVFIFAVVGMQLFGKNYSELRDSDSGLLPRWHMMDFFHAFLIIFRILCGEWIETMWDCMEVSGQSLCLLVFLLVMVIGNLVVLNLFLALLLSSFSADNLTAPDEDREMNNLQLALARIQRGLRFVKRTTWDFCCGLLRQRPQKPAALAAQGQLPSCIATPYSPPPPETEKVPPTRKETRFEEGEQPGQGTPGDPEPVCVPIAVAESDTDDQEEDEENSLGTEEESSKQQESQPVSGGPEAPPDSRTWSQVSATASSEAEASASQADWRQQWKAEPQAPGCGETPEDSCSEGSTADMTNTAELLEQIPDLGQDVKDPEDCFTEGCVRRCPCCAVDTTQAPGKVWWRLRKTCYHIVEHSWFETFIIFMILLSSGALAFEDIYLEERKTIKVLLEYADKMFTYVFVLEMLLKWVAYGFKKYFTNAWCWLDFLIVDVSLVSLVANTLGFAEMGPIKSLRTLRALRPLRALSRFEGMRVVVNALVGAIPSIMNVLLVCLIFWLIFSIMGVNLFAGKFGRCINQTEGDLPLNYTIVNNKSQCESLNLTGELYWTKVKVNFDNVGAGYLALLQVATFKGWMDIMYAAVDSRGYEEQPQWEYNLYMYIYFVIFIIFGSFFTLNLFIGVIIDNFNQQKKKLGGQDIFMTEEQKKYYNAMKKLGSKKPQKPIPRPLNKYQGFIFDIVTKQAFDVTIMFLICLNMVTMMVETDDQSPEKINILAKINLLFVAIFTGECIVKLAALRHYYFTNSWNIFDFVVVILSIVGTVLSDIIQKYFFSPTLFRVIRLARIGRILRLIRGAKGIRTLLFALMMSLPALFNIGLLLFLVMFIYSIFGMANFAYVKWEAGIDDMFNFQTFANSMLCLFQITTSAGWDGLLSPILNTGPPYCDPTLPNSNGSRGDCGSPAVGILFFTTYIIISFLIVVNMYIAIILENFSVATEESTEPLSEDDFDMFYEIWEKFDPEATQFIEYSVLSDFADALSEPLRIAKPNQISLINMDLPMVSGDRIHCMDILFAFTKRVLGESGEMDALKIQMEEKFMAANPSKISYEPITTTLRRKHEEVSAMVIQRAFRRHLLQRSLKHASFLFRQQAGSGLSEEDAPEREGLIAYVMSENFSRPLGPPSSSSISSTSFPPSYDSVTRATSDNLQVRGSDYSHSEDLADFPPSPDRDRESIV

The assay concerns the target wild-type human cardiac sodium channel, hNav1.5 (Homo sapiens, UniProt Q14524). Description: Late INa screening assay (automated whole cell patch clamp, PatchXpress). It is filed as cell-based. Conditions: compound at 1 μM; HEK293 cells expressing hNav1.5; late INa generated with 10 μM Tefluthrin (or 50 nM ATX II); read-out: LateINa_1 uM (percent block of late INa). A digest of the protocol:
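Late sodium current through wild-type human hNav1.5 stably expressed in HEK293 cells (no beta subunits) was recorded by automated whole-cell patch clamp on a PatchXpress 7000A at 24-27° C. Late INa was induced with 10 μM Tefluthrin or 50 nM ATX II. Cells were stepped from −120 mV to −20 mV for 250 ms at 0.1 Hz, and percent block was normalized to current in Na-free extracellular solution.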
Turning to `FC(F)(F)Oc1ccc(-c2ccc3nnc(C(F)(F)OCc4ccnc5ccccc45)n3c2)cc1` [BHN-212, 4-[(difluoro{6-[4-(trifluoromethoxy)phenyl][1,2,4]triazolo[4,3-a]pyridin-3-yl}methoxy)methyl]quinoline], the inhibition at 1 µM was 59.6%. The figure for `FC(F)(F)c1ncc2ccc(-c3nc4ccccc4s3)cn12` [BHN-213, 2-[3-(trifluoromethyl)imidazo[1,5-a]pyridin-6-yl]-1,3-benzothiazole] is 24%; for `FC(F)(F)Oc1ccc(-c2ccc3nnc(C(F)(F)OCC4CC4)n3c2)cc1` [BHN-214, 3-[(cyclopropylmethoxy)(difluoro)methyl]-6-[4-(trifluoromethoxy)phenyl][1,2,4]triazolo[4,3-a]pyridine] it is 80.8%. The value for `FC(F)(F)Oc1ccc(-c2ccc3nnc(C(F)(F)OCc4cn(-c5ccccc5)nn4)n3c2)cc1` [BHN-215, 3-{difluoro[(1-phenyl-1H-1,2,3-triazol-4-yl)methoxy]methyl}-6-[4-(trifluoromethoxy)phenyl][1,2,4]triazolo[4,3-a]pyridine] was 36.4%; that for `FC(F)(F)Oc1ccc(-c2ccc3nnc(C(F)(F)OCc4cccnn4)n3c2)cc1` [BHN-216, 3-[difluoro(pyridazin-3-ylmethoxy)methyl]-6-[4-(trifluoromethoxy)phenyl][1,2,4]triazolo[4,3-a]pyridine] was 26.1%; that for `CC(OC(F)(F)c1nnc2ccc(-c3ccc(OC(F)(F)F)cc3)cn12)c1ccc(F)cc1` (stereo not shown) [BHN-217, 3-{difluoro[1-(4-fluorophenyl)ethoxy]methyl}-6-[4-(trifluoromethoxy)phenyl][1,2,4]triazolo[4,3-a]pyridine] was 16.8%. As to `Clc1ccc(Oc2ccc(-c3ccc4nnnn4c3)cc2)cc1` [BHN-218, 6-[4-(4-chlorophenoxy)phenyl]tetrazolo[1,5-a]pyridine], the inhibition at 1 µM was determined as 36%. The figure for `FC(F)(F)COc1ccc(-c2ccc3nnnn3c2)cn1` [BHN-219, 6-[6-(2,2,2-trifluoroethoxy)pyridin-3-yl]tetrazolo[1,5-a]pyridine] is 36.9%. The figure for `COC(C)(C)c1ccc(-c2ccc3nnc(C(F)(F)F)n3c2)cc1` [BHN-220, 6-[4-(2-methoxypropan-2-yl)phenyl]-3-(trifluoromethyl)[1,2,4]triazolo[4,3-a]pyridine] is 58.5%; for `FC(F)(F)COc1ccc(-c2ccc3nnc(C(F)(F)F)n3n2)cn1` [BHN-221, 6-[6-(2,2,2-trifluoroethoxy)pyridin-3-yl]-3-(trifluoromethyl)[1,2,4]triazolo[4,3-b]pyridazine] it is 55%; for `CCOc1cc(OC(F)(F)F)ccc1-c1ccc2nnc(C(F)(F)F)n2c1` [BHN-222, 6-[2-ethoxy-4-(trifluoromethoxy)phenyl]-3-(trifluoromethyl)[1,2,4]triazolo[4,3-a]pyridine] it is 65.3%. For `CC(C)Oc1cc(OC(F)(F)F)ccc1-c1ccc2nnc(C(F)(F)F)n2c1` [BHN-223, 6-[2-(propan-2-yloxy)-4-(trifluoromethoxy)phenyl]-3-(trifluoromethyl)[1,2,4]triazolo[4,3-a]pyridine], the inhibition at 1 µM worked out at 54.5%. The value for `Cn1nc(COC(F)(F)c2nnc3ccc(-c4ccc(OC(F)(F)F)cc4)cn23)cc1-c1ccccc1` [BHN-224, 3-{difluoro[(1-methyl-5-phenyl-1H-pyrazol-3-yl)methoxy]methyl}-6-[4-(trifluoromethoxy)phenyl][1,2,4]triazolo[4,3-a]pyridine] was 24.2%; that for `FC(F)(F)Oc1ccc(-c2ccc3nnc(C(F)(F)OCc4ccc5c(c4)OC(F)(F)O5)n3c2)cc1` [BHN-225, 3-{[(2,2-difluoro-1,3-benzodioxol-5-yl)methoxy](difluoro)methyl}-6-[4-(trifluoromethoxy)phenyl][1,2,4]triazolo[4,3-a]pyridine] was 63%; that for `FC(F)(F)Oc1ccc(-c2ccc3nnc(COCc4ccc(C(F)(F)F)cc4)n3c2)cc1` [BHN-226, 6-[4-(trifluoromethoxy)phenyl]-3-({[4-(trifluoromethyl)benzyl]oxy}methyl)[1,2,4]triazolo[4,3-a]pyridine] was 59.3%. The value for `Fc1ccc(COCc2nnc3ccc(-c4ccc(OC(F)(F)F)cc4)cn23)cc1` [BHN-227, 3-{[(4-fluorobenzyl)oxy]methyl}-6-[4-(trifluoromethoxy)phenyl][1,2,4]triazolo[4,3-a]pyridine] was 79.8%; that for `Cc1nc(COC(F)(F)c2nnc3ccc(-c4ccc(OC(F)(F)F)cc4)cn23)c(C)o1` [BHN-228, 3-{[(2,5-dimethyl-1,3-oxazol-4-yl)methoxy](difluoro)methyl}-6-[4-(trifluoromethoxy)phenyl][1,2,4]triazolo[4,3-a]pyridine] was 73%. The figure for `Cc1oc(-c2ccccc2)nc1COC(F)(F)c1nnc2ccc(-c3ccc(OC(F)(F)F)cc3)cn12` [BHN-229, 3-{difluoro[(5-methyl-2-phenyl-1,3-oxazol-4-yl)methoxy]methyl}-6-[4-(trifluoromethoxy)phenyl][1,2,4]triazolo[4,3-a]pyridine] is 72.2%; for `CC(OC(F)(F)c1nnc2ccc(-c3ccc(OC(F)(F)F)cc3)cn12)c1ccccn1` (stereo not shown) [BHN-230, 3-{difluoro[1-(pyridin-2-yl)ethoxy]methyl}-6-[4-(trifluoromethoxy)phenyl][1,2,4]triazolo[4,3-a]pyridine] it is 42.3%; for `CC(OC(F)(F)c1nnc2ccc(-c3ccc(OC(F)(F)F)cc3)cn12)c1ccc(Cl)cc1` (stereo not shown) [BHN-231, 3-{[1-(4-chlorophenyl)ethoxy](difluoro)methyl}-6-[4-(trifluoromethoxy)phenyl][1,2,4]triazolo[4,3-a]pyridine] it is 62.9%.

With `COCC(F)(F)c1nnc2ccc(-c3ccc(OC(F)(F)F)c(F)c3)cn12` [BHN-232, 3-(1,1-difluoro-2-methoxyethyl)-6-[3-fluoro-4-(trifluoromethoxy)phenyl][1,2,4]triazolo[4,3-a]pyridine], the inhibition at 1 µM is 45.3%. The value for `COCC(F)(F)c1nnc2ccc(-c3cc(F)c(Oc4ccccc4)c(F)c3)cn12` [BHN-233, 3-(1,1-difluoro-2-methoxyethyl)-6-(3,5-difluoro-4-phenoxyphenyl)[1,2,4]triazolo[4,3-a]pyridine] was 31.4%; that for `COCC(F)(F)c1nnc2ccc(C#Cc3ccc(C(F)(F)F)cc3)cn12` [BHN-234, 3-(1,1-difluoro-2-methoxyethyl)-6-{[4-(trifluoromethyl)phenyl]ethynyl}[1,2,4]triazolo[4,3-a]pyridine] was 57.8%; that for `FC(F)(F)Oc1ccc(-c2ccc3nnc(C(F)(F)COCc4cc(-c5ccc(Cl)cc5)no4)n3c2)cc1` [BHN-235, 3-(2-{[3-(4-chlorophenyl)-1,2-oxazol-5-yl]methoxy}-1,1-difluoroethyl)-6-[4-(trifluoromethoxy)phenyl][1,2,4]triazolo[4,3-a]pyridine] was 41.5%. The figure for `FC(F)(F)c1nnc2ccc(-c3ccc(Oc4ccc(Cl)cc4)cc3)nn12` [BHN-236, 6-[4-(4-chlorophenoxy)phenyl]-3-(trifluoromethyl)[1,2,4]triazolo[4,3-b]pyridazine] is 40%; for `FC(F)c1nnc2ccc(-c3ccc(OCC(F)(F)F)nc3)nn12` [BHN-237, 3-(difluoromethyl)-6-[6-(2,2,2-trifluoroethoxy)pyridin-3-yl][1,2,4]triazolo[4,3-b]pyridazine] it is 44.7%; for `Fc1ccccc1COCc1nnc2ccc(-c3ccc(OC(F)(F)F)cc3)cn12` [BHN-238, 3-{[(2-fluorobenzyl)oxy]methyl}-6-[4-(trifluoromethoxy)phenyl][1,2,4]triazolo[4,3-a]pyridine] it is 80.6%. The value for `FC(F)(F)Oc1ccc(-c2ccc3nnc(COCc4ccccc4C(F)(F)F)n3c2)cc1` [BHN-239, 6-[4-(trifluoromethoxy)phenyl]-3-({[2-(trifluoromethyl)benzyl]oxy}methyl)[1,2,4]triazolo[4,3-a]pyridine] was 65.1%; that for `Fc1ccc(COCc2nnc3ccc(-c4ccc(OC(F)(F)F)cc4)cn23)c(F)c1` [BHN-240, 3-{[(2,4-difluorobenzyl)oxy]methyl}-6-[4-(trifluoromethoxy)phenyl][1,2,4]triazolo[4,3-a]pyridine] was 83.4%. For `FC(F)(F)Oc1ccc(-c2ccc3nnc(COCc4ccc(Cl)cc4)n3c2)cc1` [BHN-241, 3-{[(4-chlorobenzyl)oxy]methyl}-6-[4-(trifluoromethoxy)phenyl][1,2,4]triazolo[4,3-a]pyridine], the inhibition at 1 µM is 82.2%. The figure for `FC(F)(F)Oc1ccc(COCc2nnc3ccc(-c4ccc(OC(F)(F)F)cc4)cn23)cc1` [BHN-242, 3-({[4-(trifluoromethoxy)benzyl]oxy}methyl)-6-[4-(trifluoromethoxy)phenyl][1,2,4]triazolo[4,3-a]pyridine] is 72.2%.

In the case of `O=C(NCC(F)(F)c1nnc2ccc(-c3ccc(OC(F)(F)F)cc3)cn12)c1ccccc1` [BHN-243, N-(2,2-difluoro-2-{6-[4-(trifluoromethoxy)phenyl][1,2,4]triazolo[4,3-a]pyridin-3-yl}ethyl)benzamide], the inhibition at 1 µM stood at 21%. The value for `FC(F)(F)Oc1ccc(-c2ccc3nnc(COCc4ccccn4)n3c2)cc1` [BHN-244, 3-[(pyridin-2-ylmethoxy)methyl]-6-[4-(trifluoromethoxy)phenyl][1,2,4]triazolo[4,3-a]pyridine] was 17.5%. The figure for `FC(F)(F)Oc1ccc(-c2ccc3nnc(C(F)(F)OCc4ncccn4)n3c2)cc1` [BHN-245, 3-[difluoro(pyrimidin-2-ylmethoxy)methyl]-6-[4-(trifluoromethoxy)phenyl][1,2,4]triazolo[4,3-a]pyridine] is 38.8%.
